Source: patent US20230101768A1, “METHOD TO TREAT MANGANESE TOXICITY AND MANGANESE-INDUCED PA[…] HUMANS” (priority 2021, published 2023)
Where two headings read alike, the source gives them in different places. Starred links: 1 amine or outer side, 2 acyl side, 3 side chain; linkers in the order of their positions; H or OH if unused. Positions of bridges follow the written chain, without caps; N, C: chain ends. Non-standard residues stand in square brackets, D forms with d. Residues, ends and D or L forms follow the SMILES beside them. Chains are numbered I, II in the order given. *: point of attachment. Actinocin(9to1) = Cc1c2oc3c(C)ccc(C(=O)[*:1])c3nc-2c(C(=O)[*:2])c(N)c1=O; NMeV = CN[C@H](C(=O)O)C(C)C; Cbz = O=C(OCc1ccccc1)*; Sar = CNCC(=O)O

Experiments:
SLC30A10 [1] = assay type: cell-based, human; settings: for SLC30A10 expression after prolyl hydroxylase inhibitor: indicated doses for 16 h or indicated times, no drug normalized to 1
Experimental: (§1) Cells were treated with 0 or 250 μM manganese for 4 h, and gene expression was analyzed by qRT-PCR. For each transcript, expression without manganese treatment was normalized to 1. N=4. Data are mean±SE.
(§2) Cell culture. HepG2 cells were grown in Eagle's modified essential medium (MEM; Corning) with 10% fetal bovine serum (Atlanta Biologicals), 100 IU/ml penicillin (Corning), and 100 μg/ml streptomycin (Corning). 293T cells were maintained in Dulbecco's modified essential medium/F12 (Thermo) supplemented with 10% fetal bovine serum, penicillin (100 IU/ml), and streptomycin (100 μg/ml). Human primary hepatocytes were purchased from XenoTech (catalog #HPCH10+) and cultured according to protocols provided by the supplier.
(§3) manganese and drug treatments in cell culture. Cells were treated with indicated levels of manganese as manganeseCl2.4H2O (Fisher). Vehicle for manganese treatment was water. Prolyl hydroxylase inhibitors roxadustat (Caymen), vadadustat, and molidustat (both APE-Bio); the HIFα inhibitor LW6 (Selleckchem); the proteasomal inhibitor MG132 (Sigma); and the transcription inhibitor actinomycin D (Sigma) were dissolved in DMSO. […] Vehicle treatment for all drugs was DMSO.
(§4) Quantitative RT-PCR assays. RNA extraction from HepG2 cells and mouse tissue, reverse transcription to cDNA, and qRT-PCR analyses were performed as described by us previously (47, 50). For analyses of mouse brain samples, a part of the midbrain, including the basal ganglia, was used. Transcript levels were quantified using the ΔΔCT method with 18S (in mice) or TBP (in HepG2 cells) as the internal control, also as described by us previously (47, 50).

VEGF [2] = assay type: cell-based, human; settings: HepG2 cells, 10 μM LW6 for 1 h then 250 μM manganese for 4 h
Experimental: as §1, §2, §3, §4

SLC30A10 [3] = assay type: cell-based; settings: primary human hepatocytes; for SLC30A10 expression after prolyl hydroxylase inhibitor: 20 μM roxadustat or 80 μM vadadustat for 16 h
Experimental: (§5) (A) and (B): qRT-PCR assays in cells treated with or without 10 μM LW6 for 1 h followed by 0 or 250 μM manganese for 4 h (A) or with or without 20 μM roxadustat or 80 μM vadadustat for 16 h (B). […] For (B), expression in the absence of drug treatment was normalized to 1. N=3. Mean±SE. *P<0.05 by t-test (A) or one-way ANOVA and Dunnett's post hoc test for the comparison between no drug and other conditions (B).
as §2, §3, §4

VEGF [4] = assay type: cell-based; settings: primary human hepatocytes; for VEGF expression after prolyl hydroxylase inhibitor: 20 μM roxadustat or 80 μM vadadustat for 16 h
Experimental: as §5, §2, §3, §4

SLC30A10 promoter = assay type: cell-based, human
Excerpt: A luciferase reporter plasmid containing the proximal promoter of human SLC30A10 has been previously described and was a gift of Dr. Ruth Valentine (100). The promoter fragment corresponding to bases −679 to +211 relative to the start of transcription was sub-cloned into the Xho1 and SpeI sites of pRRLSIN.cPPTLuciferase.WPRE vector (Addgene, #69251), which is a luciferase vector for lentivirus infections. Deletion mutants were generated using the loop-out modification of the QuikChange protocol.
Lentiviral infections. Stable cells were generated by lentivirus infection essentially as described by us previously (49, 98). Briefly, lentivirus was produced in HEK293T cells by co-transfecting transfer plasmids described above with plasmids coding for a third generation packing system that is routinely used (pRSV-Rev, pRRE, and pCMV-VSVG) (49, 98). Viral supernatants were collected 40-48 h post-transfection. HepG2 cells for infection were plated in a 60 mm dish 24 h before infection so that cells reached a confluence of 30% on the day of infection. Collected viral supernatants were filtered through a 0.45-μm polyvinylidene difluoride filter, and cells were incubated with a 1:2 dilution of viral supernatant containing 5 μg/mL Polybrene (Santa Cruz). […]

[5] = tested on: prolyl hydroxylated HIF1α; assay type: cell-based, human
Experimental: as §3
(§6) Immunoblots. HepG2 cells were cultured in 35 mm dishes, treated with or without manganese, MG132 and/or prolyl hydroxylase inhibitors, and scrapped using 200 μl of RIPA buffer (50 mM Tris-HCl, pH7.4; 150 mM NaCl; 1Mm EDTA; 1% Triton; 0.25% sodium deoxycholate; protease inhibitors cocktail (Thermo A32953)). Whole-cell lysates were prepared by adding loading buffer (50 mM Tris-HCl, pH 7.4; 2% sodium dodecyl sulfate; 10% glycerol, 0.1 M dithiothreitol; 0.01% (weight/volume) bromophenol blue) and boiling the samples for 5 min. Equal volumes of samples were loaded per lane. Further processing was as described by us previously (47). Images were quantified using ImageQuant TL software (GE).
(§7) Antibodies and chemicals. The inventors used the following commercial primary antibodies in this study: rabbit polyclonal anti-HIF1α (Abcam, Ab2185), rabbit polyclonal anti-HIF2α (Novus, NB100-122), rabbit monoclonal anti-HIF1α proline 564 (Cell signaling, 3434S), and mouse monoclonal anti-tubulin (Sigma, T5168). […] Sources of chemicals not provided elsewhere were Thermo Fisher Scientific or Sigma-Aldrich.

C57BL/6J mice [6] = settings: roxadustat 10 mg/kg daily i.p. with or without manganese in drinking water, 4 weeks, two-way ANOVA
Experimental: (§8) To assay for the protective effect of roxadustat, animals were exposed to roxadustat or vehicle with or without manganese in drinking water from ˜4 weeks of age. Treatment lasted for 4 weeks from initiation. Roxadustat (Selleckchem) was prepared as a 50 mg/ml stock solution in DMSO, then diluted to 1 mg/ml in sterile phosphate buffered saline (PBS), and delivered by daily i.p. injection at 10 mg/kg. Vehicle was 2% DMSO in PBS. For this experiment, drinking water manganese levels were adjusted to 0.138 mg absolute manganese/ml so that animals received ˜30 mg absolute manganese/kg daily. A higher level of manganese was used because exposure was initiated after weaning, which was necessary because daily i.p. injections for roxadustat delivery were not possible in the pre-weaning period.
(§9) Animals were euthanized using carbon dioxide and tissue dissected for qRT-PCR or ICPMS analyses as described by us previously (50).
(§10) Inductively coupled plasma mass spectrometry. Metal measurements using ICP-MS were performed exactly as described by us previously (47, 50, 51, 99).

SLC30A10 [7] = assay type: in vivo, mice; settings: C57BL/6J mice, roxadustat 10 mg/kg daily i.p. for 4 weeks
Experimental: A well-characterized drinking water-based manganese exposure regimen was used to model human environmental manganese exposure by providing mice with ˜50 mg manganeseCl2.4H2O/kg body weight daily (˜15 mg absolute manganese/kg per day) from birth until 8 weeks of age. This, and related similar, dosing regimens: 1) approximate the increase in manganese exposure in humans consuming well water contaminated with 1.5 mg manganese/L, which is the median well water concentration associated with neurological deficits in children; 2) increase brain manganese levels by ˜2-3 fold, similar to human patients; 3) produce measurable neurobehavioral deficits without overt toxicity; and 4) model exposure to manganese in developmentally-sensitive early-life and adolescent periods (11). Pre-weaning manganese was delivered by pipette directly into the mouth, and post-weaning manganese was delivered in drinking water using procedures described in detail in ref. (11). In brief, pre-weaning dosing was adjusted to each animal's body weight. For this, a stock solution of 69.2 mg absolute manganese/ml prepared in milliQ water was diluted in milliQ water containing 2.5% (wt/vol) of the natural sweetener Stevia (to facilitate intake by pups), and the required manganese amount (0.2 μl manganese stock/g body weight) was delivered in a dose of ˜5-10 μl/animal. For post-weaning exposure, a 27.7 mg absolute manganese/ml stock solution was prepared in water and diluted to 0.069 mg absolute manganese/ml in drinking water, which provided mice with ˜15 mg absolute manganese/kg per day based on a daily water intake of ˜2-5 ml/mouse depending on age.
as §8, §9, §4

HepG2 cells [8] = experiment: MTT cell viability assay, manganese-induced cell death; assay type: cell-based, human; settings: 20 μM roxadustat, 80 μM vadadustat or 20 μM molidustat for 16 h then manganese for 24 h
Experimental: manganese and drug treatments in cell culture. […] Vehicle for manganese treatment was water. […] Vehicle treatment for all drugs was DMSO.
Cell viability assays. These were performed using the 3-(4,5-dimethylthiazol-2-yl)-2,5-diphenyl tetrazolium bromide (MTT) reagent (Sigma) as described by us previously (47, 50).

HIF2α = assay type: cell-based, human; settings: HepG2 cells, 20 μM roxadustat, 80 μM vadadustat or 20 μM molidustat for 16 h
Experimental: as §3, §6, §7

HIF1α = assay type: cell-based, human; settings: HepG2 cells, 20 μM roxadustat, 80 μM vadadustat or 20 μM molidustat for 16 h
Experimental: as §3, §6, §7

C57BL/6J mice [9] = tested on: C57BL/6J mice
Experimental: as §8
Open-field assays for neurobehavior assessment. Open-field analyses were performed as described in a recent publication (51).

HepG2 cells [10] = assay type: cell-based, human
Experimental: as §2, §3, §10

[11] = 10 μM LW6 for 1 h then 250 μM manganese for 4 h

Compound	SLC30A10 expression after prolyl hydroxylase inhibitor (SLC30A10 [1]; HepG2 cells)	Protection against manganese-induced cell death (HepG2 cells [8])	SLC30A10 expression after prolyl hydroxylase inhibitor (SLC30A10 [3])	VEGF expression after prolyl hydroxylase inhibitor (VEGF [4])	HIF2α protein levels after prolyl hydroxylase inhibitor (HIF2α)	HIF1α protein levels after prolyl hydroxylase inhibitor (HIF1α)	Intracellular Fe, Cu, and Zn levels (HepG2 cells [10])	Intracellular manganese in cells not exposed to manganese (HepG2 cells [10])	Intracellular manganese levels under elevated manganese exposure, versus controls (HepG2 cells [10])	other results
COC(=O)c1ccc(O)c(NC(=O)COc2ccc(C34CC5CC(CC(C5)C3)C4)cc2)c1 [LW6, reference compound]	–	–	–	–	–	–	–	–	–	Effect of LW6 on manganese-induced upregulation of SLC30A10 (SLC30A10 [1]; HepG2 cells, 10 μM LW6 for 1 h then 250 μM manganese for 4 h): robustly blocked; Effect of LW6 on manganese-induced upregulation of VEGF (VEGF [2]): robustly blocked; Effect of LW6 on manganese-induced increase of SLC30A10 expression (SLC30A10 [3]; [11]): inhibited; Effect of LW6 on manganese-induced increase of VEGF expression (VEGF [4]; [11]): inhibited; Effect of LW6 on manganese-induced increase in activity of SLC30A10 promoter luciferase reporter (SLC30A10 promoter): abolished
CC(C)C[C@@H](C=O)NC(=O)[C@H](CC(C)C)NC(=O)[C@H](CC(C)C)NC(=O)OCc1ccccc1 [MG132, reference compound] (Cbz-Leu-Leu-Leu-aldehyde)	–	–	–	–	–	–	–	–	–	Prolyl hydroxylated HIF1α after proteasome inhibition [5]: accumulation
Cc1c2oc3c(C)ccc(C(=O)N[C@@H]4C(=O)N[C@H](C(C)C)C(=O)N5CCC[C@H]5C(=O)N(C)CC(=O)N(C)[C@@H](C(C)C)C(=O)O[C@@H]4C)c3nc-2c(C(=O)N[C@@H]2C(=O)N[C@H](C(C)C)C(=O)N3CCC[C@H]3C(=O)N(C)CC(=O)N(C)[C@@H](C(C)C)C(=O)O[C@@H]2C)c(N)c1=O [actinomycin D, reference compound] (I: T[dV]P[Sar][NMeV] / II: T[dV]P[Sar][NMeV]; ester I:1-I:C, II:1-II:C; linker I:N-II:N via Actinocin(9to1))	–	–	–	–	–	–	–	–	–	Effect of actinomycin D on increase in SLC30A10 mRNA after manganese exposure (SLC30A10 [1]): blocked
Cc1nc(C(=O)NCC(=O)O)c(O)c2ccc(Oc3ccccc3)cc12 [roxadustat, 2-[(4-hydroxy-1-methyl-7-phenoxyisoquinoline-3-carbonyl)amino]acetic acid]	enhanced	protected	increased	increased	increased	increased	no effect	did not impact	significantly lower	Brain manganese levels, main effect of roxadustat (C57BL/6J mice [6]): reducing; Brain SLC30A10 levels (SLC30A10 [7]): did not impact; Intestinal SLC30A10 levels (SLC30A10 [7]): increased; Open-field activity, roxadustat treatment by itself (C57BL/6J mice [9]; C57BL/6J mice, roxadustat 10 mg/kg daily i.p. for 4 weeks, no manganese): did not impact; Hypo-locomotor phenotype (reduced vertical movement) in mice treated with manganese and roxadustat (C57BL/6J mice [9]; mouse, in vivo): not detected
O=C(O)CNC(=O)c1ncc(-c2cccc(Cl)c2)cc1O [vadadustat, 2-[[5-(3-chlorophenyl)-3-hydroxypyridine-2-carbonyl]amino]acetic acid]	enhanced	protected	increased	increased	increased	increased	no effect	did not impact	significantly lower	–
